Assay results: patent US20240122179A1, “AUXINIC HERBICIDES AND METHODS OF USE THEREOF” (CORTEVA AGRISCIENCE LLC, priority 2021, published 2024)
Read-outs that look alike come from different tables or passages of the source.

Experiments:
Experiment in all cases: Postemergence herbicide evaluation, percent reduction in plant size vs untreated control, 21 days after treatment
Amaranthus rudis (AMATA) = type: in vivo, Amaranthus rudis (tall water hemp); conditions: Amaranthus tuberculatus, post-emergence, 504 h, AMATA, postemergence, read-out: Control/Injury; for pest or weed control at 140 g/ha: rate 140 g ae/ha; for pest or weed control at 280 g/ha: rate 280 g ae/ha
Experimental: (§1) Plants were grown in a soil media composed of 90% by volume Promix BX (Premier Tech Horticulture, Quakertown, PA) and 10% Profile Greens Grade (Profile Products LLC, Buffalo Grove, IL). Promix BX contains approximately 83% Sphagnum Peat Moss, 13% Perlite, 5% vermiculite, and proprietary amounts of limestone, starter fertilizer, and wetting agent. Profile Greens Grade is a sand-sized granule formed from calcining illite and montmorillonite clay. Several seeds of each species were planted in 10 cm square pots and top watered twice daily. Plant material was propagated in a warm greenhouse with temperature ranging from 25 to 28° C. and 50 to 60% relative humidity at the Corteva Global Headquarters (Indianapolis, Indiana, USA). Natural light was supplemented with 1000-watt metal halide overhead lamps with an average illumination of 500 μE m^−2 s^−1 photosynthetic active radiation for 16 consecutive hours each day. Plants were top-watered prior to herbicide application and sub-watered after herbicide application.
(§2) Appropriate amounts of test materials were weighed out into glass vials in their technical form to deliver either 140 or 280 g acid equivalent (ae)/ha. The samples were dissolved in 3 ml of Solvent 1. Solvent 1 is 97% acetone and 3% dimethyl sulfoxide and serves as a general-purpose solvent (GPS) for dissolving technical materials. […] The samples were then diluted to their final concentration using 17 ml of solvent 2 for a total of 20 ml of spray solution. Solvent 2 contains 41.58% GPS, 45.53% water, 11.88% isopropyl alcohol, 0.99% crop oil concentrate and 0.02% Trition X-155 surfactant. All percentages are listed on a volume basis. Dicamba diglycolamine was applied as a formulated herbicide, Clarity™ and diluted with solvent 2 to compare all materials in the same spray solution.
(§3) Herbicide applications were made to 3 to 4 replicates of each plant species at the 2 to 8 leaf stage, depending on the species. Treatments were applied with a research track-sprayer (Generation III Research Sprayer manufactured by DeVries Manufacturing in Hollandale, MN, USA) calibrated to deliver a spray volume of 187 L/ha. The track-sprayer was fitted with an 8003E nozzle from Spray Systems Company (North Avenue and Schmale Road, P.O. Box 7900, Wheaton, IL 60187), and used a spray pressure of 276 kPa pressure and a speed of 3.1 km/h. The nozzle height was 46 cm above the plant canopy. The experimental design used for the trials was a randomized complete block with 3 or 4 replications per treatment. After application, plants were placed on carts according to the randomization and returned to the greenhouse. Plants were sub-watered after treatment with Indianapolis city water or fertilized three times a week with a commercial fertilizer solution (Jack's Professional 15-5-15 4 Ca 2 Mg fertilizer (manufactured by JR PETERS INC., 6656 Grant Way, Allentown, PA 18106; www.jrpeters.com). Percent visual control assessments were made on a scale of 0 to 100% (where 0 was no control and 100 was complete plant death) at 7, 14, and 21 days after treatment.
(§4) In conformity with the methods outlined in Example 49, the effect of representative experimental compounds on the growth of Amaranthus rudis (AMATA), common name tall water hemp, was determined at 2 different levels (respectively, 140 and 280 g acid equivalent (ae)/ha) of the experimental actives tested. Plants were treated with one of the compounds, a control plant was not treated. Twenty-one days after treatment, the plants were measured. The data is present as a percent reduction in plant size relative to the untreated control.

[1] = test system: Ambrosia artemisiifolia (AMBEL); type: in vivo, Ambrosia artemisiifolia (common ragweed); conditions: post-emergence, 504 h, AMBEL, postemergence, read-out: Control/Injury; for pest or weed control at 140 g/ha: rate 140 g ae/ha; for pest or weed control at 280 g/ha: rate 280 g ae/ha
Experimental: as §1, §2, §3
as §4, with “Ambrosia artemisiifolia (AMBEL), (common ragweed),” for “Amaranthus rudis (AMATA), common name tall water hemp,”

Kochia scoparia (KCHSC) = type: in vivo; conditions: Bassia scoparia, post-emergence, 504 h, KCHSC, postemergence, read-out: Control/Injury; for pest or weed control at 140 g/ha: rate 140 g ae/ha; for pest or weed control at 280 g/ha: rate 280 g ae/ha
Experimental: as §1, §2, §3
as §4, with “Kochia scoparia (KCHSC)” for “Amaranthus rudis (AMATA), common name tall water hemp,”

[2] = test system: Amaranthus palmeri (AMAPA); type: in vivo, Amaranthus palmeri (Palmer amaranth); conditions: post-emergence, 504 h, postemergence, read-out: Control/Injury; for pest or weed control at 140 g/ha: rate 140 g ae/ha; for pest or weed control at 280 g/ha: rate 280 g ae/ha
Experimental: as §1, §2, §3
as §4, with “palmeri (AMAPA),” for “rudis (AMATA),”, “name, Palmer amaranth,” for “name tall water hemp,”

[3] = test system: Conyza canadensis (L.) (ERICA); type: in vivo, Conyza canadensis (L.) (Horseweed); conditions: Erigeron canadensis, post-emergence, 504 h, ERICA, postemergence, read-out: Control/Injury; for pest or weed control at 140 g/ha: rate 140 g ae/ha; for pest or weed control at 280 g/ha: rate 280 g ae/ha
Experimental: as §1, §2, §3
as §4, with “Conyza canadensis (L.), (ERICA),” for “Amaranthus rudis (AMATA),”, “name, Horseweed,” for “name tall water hemp,”

[4] = percent reduction vs untreated, 21 days after treatment
[5] = R-AMAPA, percent reduction vs untreated control, 21 days after treatment
[6] = percent reduction vs untreated control, 21 days after treatment

Structure (SMILES)	pest or weed control at 140 g/ha (Amaranthus rudis (AMATA))	pest or weed control at 280 g/ha (Amaranthus rudis (AMATA))	pest or weed control at 140 g/ha [1]	pest or weed control at 280 g/ha [1]	pest or weed control at 140 g/ha (Kochia scoparia (KCHSC); [4])	pest or weed control at 280 g/ha (Kochia scoparia (KCHSC); [4])	pest or weed control at 140 g/ha ([2]; AMAPA)	pest or weed control at 280 g/ha ([2]; AMAPA)	pest or weed control at 140 g/ha [3]	pest or weed control at 280 g/ha [3]	pest or weed control at 140 g/ha (Kochia scoparia (KCHSC))	pest or weed control at 280 g/ha (Kochia scoparia (KCHSC))	pest or weed control at 140 g/ha [2, 5]	pest or weed control at 280 g/ha [2, 5]	pest or weed control at 140 g/ha [3, 6]	pest or weed control at 280 g/ha [3, 6]
CCN(CC)C(=O)c1c(Cl)ccc(Cl)c1OC [Compound A-107]	2%	18%	10%	18%	0%	0%	9%	18%	3%	5%	–	–	–	–	–	–
CCN(CC)OC(=O)c1c(Cl)ccc(Cl)c1OC [Compound A-64]	3%	2%	5%	12%	–	–	–	–	–	–	0%	3%	3%	20%	3%	10%
COc1c(Cl)ccc(Cl)c1C(=O)n1ncc2ccccc21 [Compound A-113]	50%	63%	70%	90%	85%	93%	40%	70%	50%	99%	–	–	–	–	–	–
CCCNNC(=O)c1c(Cl)ccc(Cl)c1OC [Compound A-112]	13%	20%	18%	38%	0%	18%	18%	33%	10%	10%	–	–	–	–	–	–
COc1c(Cl)ccc(Cl)c1C(=O)n1ccnc1 [Compound A-126]	45%	55%	33%	50%	28%	50%	33%	35%	15%	33%	–	–	–	–	–	–
COc1c(Cl)ccc(Cl)c1C(=O)NNc1nc(C)cs1 [Compound A-108]	18%	28%	5%	15%	0%	3%	8%	28%	5%	8%	–	–	–	–	–	–
COc1c(Cl)ccc(Cl)c1C(=O)NNCc1ccccc1 [Compound A-111]	18%	28%	25%	35%	5%	5%	20%	33%	8%	10%	–	–	–	–	–	–
COc1c(Cl)ccc(Cl)c1C(=O)N1CCOCC1 [Compound A-65]	15%	23%	40%	55%	–	–	–	–	–	–	28%	37%	33%	33%	8%	28%
COc1c(Cl)ccc(Cl)c1C(=O)ON(C)C(=O)c1ccccc1 [Compound A-71]	83%	80%	83%	93%	–	–	–	–	–	–	85%	87%	70%	82%	85%	92%
COc1c(Cl)ccc(Cl)c1C(=O)ONC(N)=O [Compound A-67]	0%	2%	3%	3%	–	–	–	–	–	–	3%	2%	13%	10%	2%	3%
COc1c(Cl)ccc(Cl)c1C(=O)O/N=C/C(C)=O [Compound A-69]	67%	80%	80%	96%	–	–	–	–	–	–	91%	96%	70%	80%	88%	91%
